This is an account of results in patent publication US10752612B2, “PLK4 inhibitors” (LUDWIG INSTITUTE FOR CANCER RESEARCH LTD, priority 2015, dated 2020).

This experiment deals with T1, human Plk4 kinase domain (aa 2-275) (Homo sapiens, UniProt O00444).
T1 construct: purified 6×His-tagged human Plk4 kinase domain (aa 2-275); 6xHis; made in house; host or cells: E. coli
T1 sequence (O00444 2-275): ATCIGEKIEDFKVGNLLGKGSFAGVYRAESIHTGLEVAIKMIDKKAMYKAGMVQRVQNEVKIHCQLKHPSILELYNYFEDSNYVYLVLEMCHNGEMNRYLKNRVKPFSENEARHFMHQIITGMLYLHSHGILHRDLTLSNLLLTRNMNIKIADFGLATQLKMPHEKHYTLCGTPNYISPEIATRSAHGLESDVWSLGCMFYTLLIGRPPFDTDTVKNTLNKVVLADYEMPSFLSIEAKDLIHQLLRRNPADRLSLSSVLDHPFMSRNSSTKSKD
Put plainly: Plk4 kinase assay (ADP-Glo). Format: biochemical. The conditions noted are these: Table 1. In short, it runs like this:
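Enzyme at 2.5-10 nM final, pH 8.0, reacted 4-16 hours at 25° C; ADP generation read by ADP-Glo luminescence. Ki derived from IC50 by Cheng-Prusoff or, for tight binders, Copeland formalism.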
Background: ADP-Glo first removes unused ATP, then detects ADP through luciferase.
For orientation: IC50 means the concentration needed to halve the response being measured. As for `Cc1cc(Nc2nc(Sc3ccc(NC(=O)C4CC4)cc3)nc(C)c2C)n[nH]1`, the IC50 is less than 1 µM. As for `COc1c(Nc2cc(C)[nH]n2)nc(Sc2ccc(NC(=O)C3CC3)cc2)nc1N1CCCCC1`, the figure is less than 1 µM; as for `COc1c(Nc2cc(C)[nH]n2)nc(Sc2ccc(NC(=O)C3CC3)cc2)nc1NC(C)C`, less than 1 µM; as for `CNc1nc(Sc2ccc(NC(=O)C3CC3)cc2)nc(Nc2cc(C)[nH]n2)c1OC`, less than 1 µM. As for `CCCOc1c(Nc2cc(C)[nH]n2)nc(Sc2ccc(NC(=O)C3CC3)cc2)nc1N(CC)CC`, the figure is 0.1 to 1 µM; as for `CCNc1nc(Sc2ccc(NC(=O)C3CC3)cc2)nc(Nc2cc(C)[nH]n2)c1OC`, less than 1 µM; as for `COc1c(Nc2cc(C)[nH]n2)nc(Sc2ccc(S(=O)(=O)Cc3cccc(Cl)c3F)cc2F)nc1N1CCOCC1`, less than 1 µM.

In turn, `COc1c(Nc2cc(C)[nH]n2)nc(Sc2ccc(S(=O)(=O)Cc3cccc(Br)c3F)cc2F)nc1N1CCOCC1` registered an IC50 of less than 1 µM. With `COc1c(Nc2cc(C)[nH]n2)nc(Sc2ccc(S(=O)(=O)Cc3c(F)c(F)cc(F)c3F)cc2F)nc1N1CCOCC1` the figure was less than 1 µM; with `COc1c(Nc2cc(C)[nH]n2)nc(Sc2ccc(S(=O)(=O)Cc3cccc(C(F)(F)F)c3F)cc2F)nc1N1CCOCC1`, less than 1 µM. As for `COc1c(Nc2cc(C)[nH]n2)nc(Sc2ccc(S(=O)(=O)Cc3cccc(C#N)c3F)cc2F)nc1N1CCOCC1`, the figure is less than 1 µM; as for `COc1c(Nc2cc(C)[nH]n2)nc(Sc2ccc(S(=O)(=O)Cc3cccc(N)c3F)cc2F)nc1N1CCOCC1`, less than 1 µM; as for `COc1c(Nc2cc(C)[nH]n2)nc(Sc2ccc(S(=O)(=O)C(F)c3cccc([N+](=O)[O-])c3F)cc2F)nc1N1CCOCC1` (stereo not drawn), less than 1 µM.

`COC(=O)c1cccc(CS(=O)(=O)c2ccc(Sc3nc(Nc4cc(C)[nH]n4)c(OC)c(N4CCOCC4)n3)c(F)c2)c1F` came in with an IC50 of less than 1 µM.

In turn, `COc1c(Nc2cc(C)[nH]n2)nc(Sc2ccc(S(=O)(=O)Cc3cccc(C(=O)N(C)C)c3F)cc2F)nc1N1CCOCC1` came in with an IC50 of less than 1 µM.

Regarding `COc1c(Nc2cc(C)[nH]n2)nc(Sc2ccc(S(=O)(=O)Cc3cccc(C(N)=O)c3F)cc2F)nc1N1CCOCC1`, the IC50 is less than 1 µM.

In the case of `COc1c(Nc2cc(C)[nH]n2)nc(Sc2ccc(S(=O)(=O)Cc3cccc([N+](=O)[O-])c3F)cc2F)nc1N1CCOC[C@@H]1CO`, the IC50 is less than 1 µM.

In the case of `COc1c(Nc2cc(C)[nH]n2)nc(Sc2ccc(S(=O)(=O)Cc3cccc(Br)c3F)cc2F)nc1N1CCCCC1`, the IC50 is less than 1 µM.

As for `COc1c(Nc2cc(C)[nH]n2)nc(Sc2ccc(S(=O)(=O)Cc3cccc(I)c3F)cc2F)nc1N1CCOCC1`, the IC50 is less than 1 µM.

In turn, `COc1c(Nc2cc(C)[nH]n2)nc(Sc2ccc(S(=O)(=O)c3cccc([N+](=O)[O-])c3)cc2F)nc1N1CCOCC1` gave a concentration for half-maximal inhibition (IC50) of less than 1 µM. As for `COc1c(Nc2cc(C)[nH]n2)nc(Sc2ccc(C(=O)Nc3cccc([N+](=O)[O-])c3F)cc2F)nc1N1CCOCC1`, the figure is less than 1 µM. In the case of `COc1c(Nc2cc(C)[nH]n2)nc(Sc2ccc(S(=O)(=O)C(F)c3cccc([N+](=O)[O-])c3F)cc2F)nc1N1CCN(CCN(C)C)CC1` (stereo not drawn), the IC50 was less than 1 µM. With `COc1c(Nc2cc(C)[nH]n2)nc(Sc2ccc(C#Cc3cccc([N+](=O)[O-])c3F)cc2F)nc1N1CCOCC1` the figure was less than 1 µM; with `COc1c(Nc2cc(C)[nH]n2)nc(Sc2ccc(/C=C/c3cccc([N+](=O)[O-])c3F)cc2F)nc1N1CCOCC1`, less than 1 µM; with `COc1c(Nc2cc(C)[nH]n2)nc(Sc2ccc(CCc3cccc([N+](=O)[O-])c3F)cc2F)nc1N1CCOCC1`, less than 1 µM. As for `COc1c(Nc2cc(C)[nH]n2)nc(Sc2ccc(-c3cc4cccc([N+](=O)[O-])c4o3)cc2F)nc1N1CCOCC1`, the figure is less than 1 µM; as for `COc1c(Nc2cc(C)[nH]n2)nc(Sc2ccc(C(=O)Cc3cccc([N+](=O)[O-])c3F)cc2F)nc1N1CCOCC1`, less than 1 µM; as for `COc1c(Nc2cc(C)[nH]n2)nc(Sc2ccc(C(=O)Oc3cccc([N+](=O)[O-])c3F)cc2F)nc1N1CCOCC1`, less than 1 µM. As for `COc1c(Nc2cc(C)[nH]n2)nc(Sc2ccc(S(=O)(=O)C(C)(C)c3cccc([N+](=O)[O-])c3F)cc2F)nc1N1CCOCC1`, the figure is less than 1 µM; as for `COc1c(Nc2cc(C)[nH]n2)nc(Sc2ccc(NC(=O)c3cccc([N+](=O)[O-])c3F)cc2F)nc1N1CCOCC1`, 0.1 to 1 µM. On to `COc1c(Nc2cc(C)[nH]n2)nc(Sc2ccc(S(=O)(=O)Cc3cccc(C#N)c3F)cc2F)nc1N1CCCCC1`, for which the half-inhibitory concentration (IC50) is less than 1 µM. With `COc1c(Nc2cc(C)[nH]n2)nc(Sc2ccc(S(=O)(=O)Cc3cccc(C#N)c3F)cc2F)nc1N1CCN(CCN(C)C)CC1` the figure was less than 1 µM. With `COc1c(Nc2cc(C)[nH]n2)nc(Sc2ccc(S(=O)(=O)C(F)c3cccc(C#N)c3F)cc2F)nc1N1CCOCC1` (stereo not drawn) the figure was less than 1 µM. As for `COc1c(Nc2cc(C)[nH]n2)nc(Sc2ccc(S(=O)(=O)Nc3cccc([N+](=O)[O-])c3)cc2F)nc1N1CCOCC1`, the figure is less than 1 µM; as for `COc1c(Nc2cc(C)[nH]n2)nc(Sc2ccc(S(=O)(=O)Cc3cccc([N+](=O)[O-])c3F)cc2F)nc1N1CCCC[C@@H]1CO`, less than 1 µM; as for `COc1c(Nc2cc(C)[nH]n2)nc(Sc2ccc(S(=O)(=O)Cc3cccc([N+](=O)[O-])c3F)cc2F)nc1N1CCC(CCN(C)C)CC1`, less than 1 µM.

`COc1c(Nc2cc(C)[nH]n2)nc(Sc2ccc(NC(=O)Cc3cccc([N+](=O)[O-])c3F)cc2F)nc1N1CCOCC1` returned an IC50 of less than 1 µM. As for `COc1c(Nc2cc(C)[nH]n2)nc(Sc2ccc(S(=O)(=O)C(F)c3cccc([N+](=O)[O-])c3F)cc2F)nc1N1CCC(CCN(C)C)CC1` (stereo not drawn), the figure is less than 1 µM. With `COc1c(Nc2cc(C)[nH]n2)nc(Sc2ccc(S(=O)(=O)C(C)(C)c3cccc([N+](=O)[O-])c3F)cc2F)nc1N1CCCCC1` the figure was less than 1 µM; with `COc1c(Nc2cc(C)[nH]n2)nc(Sc2ccc(S(=O)(=O)C(C)(C)c3cccc([N+](=O)[O-])c3F)cc2F)nc1N1CCN(CCN(C)C)CC1`, less than 1 µM.

For `COc1c(Nc2cc(C)[nH]n2)nc(Sc2ccc(S(=O)(=O)C(F)c3cccc([N+](=O)[O-])c3F)cc2F)nc1N1CCOC[C@@H]1CO` (stereo partly drawn), the 50% inhibitory concentration (IC50) is less than 1 µM. With `COc1c(Nc2cc(C)[nH]n2)nc(Sc2ccc(S(=O)(=O)C(F)c3c(F)c(F)cc(F)c3F)cc2F)nc1N1CCOCC1` (stereo not drawn) the figure was less than 1 µM; with `COc1c(Nc2cc(C)[nH]n2)nc(Sc2ccc(S(=O)(=O)C(C)(C)c3c(F)c(F)cc(F)c3F)cc2F)nc1N1CCN(CCN(C)C)CC1`, less than 1 µM. As for `COc1c(Nc2cc(C)[nH]n2)nc(Sc2ccc(S(=O)(=O)C(C)(C)c3cccc([N+](=O)[O-])c3F)cc2F)nc1N1CCC(CCN(C)C)CC1`, the figure is less than 1 µM; as for `COc1c(Nc2cc(C)[nH]n2)nc(Sc2ccc(S(=O)(=O)C(C)(C)c3cccc([N+](=O)[O-])c3F)cc2F)nc1N1CCOC[C@@H]1CO`, less than 1 µM. With `COc1c(Nc2cc(C)[nH]n2)nc(Sc2ccc(S(=O)(=O)C(C)(C)c3cccc(Cl)c3F)cc2F)nc1N1CCOCC1` the figure was less than 1 µM; with `COc1c(Nc2cc(C)[nH]n2)nc(Sc2ccc(S(=O)(=O)C(C)(C)c3cccc(Cl)c3F)cc2F)nc1N1CCN(CCN(C)C)CC1`, less than 1 µM; with `COc1c(Nc2cc(C)[nH]n2)nc(Sc2ccc(S(=O)(=O)C(C)(C)c3cc(F)cc(Cl)c3F)cc2F)nc1N1CCOCC1`, less than 1 µM.
